The numbers were not newly measured in US11045513B2, “Association of dry extracts of Vicia faba, Uncaria rhyncophylla and liquorice root together with coenzyme Q10 for use as coadjuvant, for improving the quality of life in subjects suffering from movement disorders” (CRISTALFARMA S.R.L., priority 2018, dated 2021), which cites them from elsewhere.

For the data set, the target named is dopamine D3 receptor (DRD3) (Homo sapiens, UniProt P35462).
Sequence of dopamine D3 receptor (DRD3) (P35462 whole entry): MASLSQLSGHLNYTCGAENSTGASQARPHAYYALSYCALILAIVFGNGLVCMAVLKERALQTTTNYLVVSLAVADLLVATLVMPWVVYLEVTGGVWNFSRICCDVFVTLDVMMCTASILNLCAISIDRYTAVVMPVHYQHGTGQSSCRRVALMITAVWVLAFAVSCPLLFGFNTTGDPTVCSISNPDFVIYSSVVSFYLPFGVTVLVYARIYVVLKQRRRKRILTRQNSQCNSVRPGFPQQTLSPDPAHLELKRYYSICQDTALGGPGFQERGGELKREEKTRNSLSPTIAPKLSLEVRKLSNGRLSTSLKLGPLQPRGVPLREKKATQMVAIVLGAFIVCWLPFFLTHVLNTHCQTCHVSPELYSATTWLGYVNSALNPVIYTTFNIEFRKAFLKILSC

For `CC1(C)[C@@H](O)CC[C@]2(C)[C@H]3C(=O)C=C4[C@@H]5C[C@@](C)(C(=O)O)CC[C@]5(C)CC[C@@]4(C)[C@]3(C)CC[C@@H]12` [glycyrrhetinic acid], the “binding affinity for the dopamine D3 receptor (DRD3)” value is given as “strong binding affinity”.
